# Measured values as given in patent US20050095240A1, “NaCT as a target for lifespan expansion and weight reduction” (Medical College of Georgia Research, priority 2002, published 2005).
# Several values for one entry are separate records, joined by “and”; a condition that tells them apart may be missing. Equal entries are not always repeated.
# Key:
# [1] = molecular target: drIndy (Drosophila melanogaster, UniProt Q9VVT2); details: for % Control of cDNA-specific [^3H]succinate uptake / cDNA-specific [^3H] succinate uptake: [3H]succinate 40 nM, inhibitor 2.5 mM; for cDNA-specific [^3H] succinate uptake: NaCl buffer pH 7.5; for Citrate uptake, drIndy / Fold Increase of citrate uptake (drIndy vs vector): citrate 35 μM, indicated salt; for Citrate uptake, drIndy: drIndy cDNA-transfected HRPE cells
# [2] = molecular target: human NaCT (Homo sapiens, UniProt Q86YT5); assay: Uptake via human NaCT expressed in HRPE cells; format: cell-based; details: for Citrate Uptake, cDNA: human NaCT cDNA-transfected HRPE; for Citrate Uptake, cDNA / Citrate Uptake, cDNA-specific: pH 7.5, indicated salt; for Citrate Uptake, cDNA-specific, %: relative to NaCl
# [3] = molecular target: T1, rat NaCT (Rattus norvegicus, UniProt Q8CJ44); assay: Uptake via rat NaCT expressed in HRPE cells; format: cell-based; details: for Citrate Uptake, cDNA-specific / Citrate Uptake, cDNA / Citrate Uptake, cDNA-specific, %: [14C]citrate 7 μM; for Citrate Uptake, cDNA-specific / Citrate Uptake, cDNA: pH 7.5, indicated salt; for Citrate Uptake, cDNA: rat NaCT cDNA-transfected HRPE; for Citrate Uptake, cDNA-specific, %: relative to NaCl
# T1 sequence (Q8CJ44 1-572): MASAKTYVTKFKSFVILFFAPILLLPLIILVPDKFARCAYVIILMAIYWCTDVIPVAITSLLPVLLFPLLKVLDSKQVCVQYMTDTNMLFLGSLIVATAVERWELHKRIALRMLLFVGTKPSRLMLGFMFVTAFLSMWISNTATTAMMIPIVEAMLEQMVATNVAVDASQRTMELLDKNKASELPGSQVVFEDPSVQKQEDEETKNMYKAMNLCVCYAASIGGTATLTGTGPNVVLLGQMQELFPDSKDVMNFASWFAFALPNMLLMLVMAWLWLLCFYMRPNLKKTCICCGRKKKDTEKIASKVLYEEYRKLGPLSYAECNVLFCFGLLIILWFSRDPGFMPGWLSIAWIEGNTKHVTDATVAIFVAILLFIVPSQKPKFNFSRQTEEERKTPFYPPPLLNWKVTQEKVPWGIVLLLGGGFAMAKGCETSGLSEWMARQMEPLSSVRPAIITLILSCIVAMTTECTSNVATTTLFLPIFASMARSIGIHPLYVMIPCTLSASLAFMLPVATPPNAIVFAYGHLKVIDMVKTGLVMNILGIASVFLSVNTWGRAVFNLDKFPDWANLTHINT
# [4] = molecular target: T2, mouse NaCT (Mus musculus, UniProt Q67BT3); assay: Transport via mouse NaCT expressed in HRPE cells; format: cell-based
# T2 sequence (Q67BT3 1-572): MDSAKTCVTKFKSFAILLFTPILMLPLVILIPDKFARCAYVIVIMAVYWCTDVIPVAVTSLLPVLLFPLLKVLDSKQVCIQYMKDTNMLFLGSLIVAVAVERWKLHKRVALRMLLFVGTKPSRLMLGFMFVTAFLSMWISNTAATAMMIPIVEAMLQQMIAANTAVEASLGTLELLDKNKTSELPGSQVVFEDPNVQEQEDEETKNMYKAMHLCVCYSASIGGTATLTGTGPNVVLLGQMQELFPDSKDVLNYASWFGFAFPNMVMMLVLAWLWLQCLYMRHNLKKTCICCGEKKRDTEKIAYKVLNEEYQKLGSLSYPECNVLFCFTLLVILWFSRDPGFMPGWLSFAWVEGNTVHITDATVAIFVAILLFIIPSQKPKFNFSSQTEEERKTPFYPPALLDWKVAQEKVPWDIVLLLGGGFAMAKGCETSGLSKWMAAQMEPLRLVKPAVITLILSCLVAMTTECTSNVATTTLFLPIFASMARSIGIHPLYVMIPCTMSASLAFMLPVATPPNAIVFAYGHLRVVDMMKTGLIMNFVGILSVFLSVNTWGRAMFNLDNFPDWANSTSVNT
# Chain of human NaCT (Q86YT5 whole entry): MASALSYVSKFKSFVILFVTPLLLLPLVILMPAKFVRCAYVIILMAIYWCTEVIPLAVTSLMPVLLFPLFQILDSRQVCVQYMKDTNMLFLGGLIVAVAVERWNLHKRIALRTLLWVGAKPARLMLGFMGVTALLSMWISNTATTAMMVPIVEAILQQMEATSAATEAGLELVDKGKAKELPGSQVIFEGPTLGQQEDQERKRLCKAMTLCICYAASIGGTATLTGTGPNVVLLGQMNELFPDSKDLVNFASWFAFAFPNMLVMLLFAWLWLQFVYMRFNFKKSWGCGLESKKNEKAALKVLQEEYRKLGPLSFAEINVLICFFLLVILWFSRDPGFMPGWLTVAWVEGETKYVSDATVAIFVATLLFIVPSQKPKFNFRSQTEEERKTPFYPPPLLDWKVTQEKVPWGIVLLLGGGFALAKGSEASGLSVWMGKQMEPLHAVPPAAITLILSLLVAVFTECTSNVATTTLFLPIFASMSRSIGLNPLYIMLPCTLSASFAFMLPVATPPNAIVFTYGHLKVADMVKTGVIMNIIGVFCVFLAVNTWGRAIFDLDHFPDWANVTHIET
# Chain of drIndy (Q9VVT2 19-590): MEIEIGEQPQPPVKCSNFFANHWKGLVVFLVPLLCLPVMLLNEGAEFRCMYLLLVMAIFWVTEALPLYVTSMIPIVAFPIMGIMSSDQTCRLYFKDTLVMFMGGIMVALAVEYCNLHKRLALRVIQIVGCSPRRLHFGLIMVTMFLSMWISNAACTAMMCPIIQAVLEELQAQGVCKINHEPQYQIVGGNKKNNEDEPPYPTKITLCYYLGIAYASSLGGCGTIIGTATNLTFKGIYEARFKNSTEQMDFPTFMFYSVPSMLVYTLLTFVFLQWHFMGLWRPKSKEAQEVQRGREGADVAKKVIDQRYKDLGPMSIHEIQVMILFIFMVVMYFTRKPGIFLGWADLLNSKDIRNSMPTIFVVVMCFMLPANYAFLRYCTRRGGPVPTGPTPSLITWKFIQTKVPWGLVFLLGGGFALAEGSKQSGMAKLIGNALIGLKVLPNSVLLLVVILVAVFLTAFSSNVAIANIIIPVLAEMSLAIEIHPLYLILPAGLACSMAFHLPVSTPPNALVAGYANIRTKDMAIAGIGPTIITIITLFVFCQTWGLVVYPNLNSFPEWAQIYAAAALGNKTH
SMILES,% Control of cDNA-specific [^3H]succinate uptake [1] [%],"Citrate Uptake, cDNA ([2]; [14C]-citrate 20 μM) [pmol/10^6 cells/min]","Citrate Uptake, cDNA-specific ([2]; [14C]-citrate 20 μM)","Citrate Uptake, cDNA-specific, % [2] [%]","Citrate uptake, drIndy [1] [pmol/10^6 cells per min]",Fold Increase of citrate uptake (drIndy vs vector) [1] [fold],"Citrate Uptake, cDNA-specific [3] [pmol/10^6 cells/min]","Citrate Uptake, cDNA [3] [pmol/10^6 cells/min]","Citrate Uptake, cDNA-specific, % [3] [%]",other results
CC(=O)N[C@@H](CC(=O)O)C(=O)O [N-Acetylaspartate],43,,,,,,,,,cDNA-specific [^3H] succinate uptake [1]: 58.4 ± 1.5 fmol/106 cells per min
"CNC[C@H](O)[C@@H](O)[C@H](O)[C@H](O)CO.Cl [NMDG chloride, N-methyl-D-glucamine chloride]",,1.3 ± 0.2,−0.1 ± 0.2^ pmol/10^6 cells/min,0,25.4 ± 1.8,13.4,0.4 ± 0.3,1.6 ± 0.3,1,
[Cl-].[Na+] [NaCl],,59.9 ± 3.9,58.4 ± 3.9 pmol/10^6 cells/min,100,57.4 ± 3.3,26.1,38.0 ± 3.3,38.8 ± 3.3,100,
[Na+] [Na^+],,,,,,,,,,Hill coefficient (nH) of Na+ activation [4]: 3.3±0.6 and 2.0±0.3; EC50 ([4]; read-out: K0.5 for Na+ (half-maximal activation of the transport process)): 72 ± 6 mM; Hill coefficient (nH) of Na+ dependence of citrate uptake [3]: 3.3±0.3
"CC(=O)C(=O)O [Pyruvate, pyruvate]",21,,,,,,,,,"[^14C]-Citrate Uptake, % ([2]; [14C]-citrate 20 μM, unlabeled compound 2.5 mM, none = 100): 108%; [^3H]-Succinate transport, % ([4]; [3H]-succinate 0.1 μM, substrate analog 2 mM, control = 100): 104%; [^14C]-Citrate transport, % ([4]; [14C]-citrate 10 μM, substrate analog 2 mM, control = 100): 84%; [^14C]Citrate uptake, % ([3]; [14C]citrate 14 μM, unlabeled compound 2.5 mM, none = 100): 83%"
O=C([O-])[C@H](O)[C@@H](O)[C@H](O)[C@H](O)CO.[Na+] [Sodium gluconate],,61.7 ± 4.7,60.1 ± 4.7 pmol/10^6 cells/min,103,144.2 ± 1.6,65.6,29.1 ± 2.3,29.6 ± 2.3,77,
O=C(O)CC(O)(C(=O)O)C(O)C(=O)O (centres unmarked) [hydroxycitrate],,,,,,,,,,"Inhibition of citrate uptake via NaCT ([2]; 0.1 mM hydroxycitrate, human NaCT in HRPE cells): 30-40%; Inhibition of citrate uptake via NaCT ([3]; 0.1 mM hydroxycitrate, rat NaCT in HRPE cells): 30-40%"
CC(O)CC(=O)O (stereo not drawn) [β-Hydroxybutyrate],91,,,,,,,,,cDNA-specific [^3H] succinate uptake [1]: 134.0 ± 9.0 fmol/106 cells per min
